Test results published in patent publication US20260041653A1, “AN HDAC INHIBITOR FOR TREATING CANCER WITH A MODIFIED STK11 ACTIVITY OR EXPRESSION” (Tango Therapeutics, Inc., priority 2022, published 2026).

Tested on: MC38_sgStk11 tumor
Experiment: Anti-tumor efficacy in murine subcutaneous MC38_sgStk11 tumor model
Type: in vivo, Mus musculus
Settings: for T/C / TGI %: day 11
Procedure: Summary: An in vivo anti-tumor efficacy of double combination treatment of Anti-PD1 and HDAC1,2-selective inhibitor in a murine subcutaneous MC38_sgStk11 tumor model in […] mice was performed.
96 mice plus 39 spare mice of the species: Mus musculus: strain: C57BL/6; age 8-10 weeks; sex: female; and body weight: 16.9-20.0 g
The MC38_sgStk11 tumor cells were maintained in vitro as a monolayer culture in DMEM+2 mM glutamine supplemented with about 10% heat inactivated fetal bovine serum, about 100 U/ml penicillin and 100 μg/ml streptomycin at about 37° C. in an atmosphere of about 5% CO2 in air. The tumor cells were routinely sub-cultured twice weekly by trypsin-EDTA treatment. The cells growing in an exponential growth phase were harvested and counted for tumor inoculation.
Each mouse was inoculated subcutaneously at the right upper flank with MC38_sgStk11 tumor cells (0.5×106) in 0.1 ml of PBS for tumor development. Treatments were started on day 4 after tumor inoculation when the average tumor size reached 52 mm^3. The animals were assigned into groups according to a sorting standard operating procedures based upon their tumor volumes. Each group consisted of 8 tumor bearing mice. The testing article was administrated to the mice according to the predetermined regimen as shown in the experimental design table (Table 1-1).
All the procedures related to animal handling, care and the treatment in the study were performed according to the guidelines approved by the Institutional Animal Care and Use Committee (IACUC) of vendor following the guidance of the Association for Assessment and Accreditation of Laboratory Animal Care (AAALAC). At the time of routine monitoring, the animals were daily checked for any effects of tumor growth and treatments on normal behavior such as mobility, food and water consumption, body weight gain/loss (body weights were measured three times per week), eye/hair matting and any other abnormal effect as stated in the protocol. Death and observed clinical signs were recorded on the basis of the numbers of animals within each subset.
A primary endpoint was to see if the tumor growth could be delayed or mice could be cured. Tumor size was measured three times per week in two dimensions using a caliper, and the volume was expressed in mm3 using the formula: V=0.5 a×b2 where a and b are the long and short diameters of the tumor, respectively. The T/C value (in percent) is an indication of antitumor effectiveness; T and C are the mean volume of the treated and control groups, respectively, on a given day. TGI is calculated for each group using the formula: TGI (%)=[1−(Ti−T0)/(Vi−V0)]×100; Ti is the average tumor volume of a treatment group on a given day, T0 is the average tumor volume of the treatment group on the day of treatment start, Vi is the average tumor volume of the vehicle control group on the same day with Ti, and V0 is the average tumor volume of the vehicle group on the day of treatment start.
Statistical analysis of difference in the tumor volume among the groups were conducted on the data obtained at the best therapeutic time point at the day 11 after the start of treatment. A one-way ANOVA was performed for comparisons between groups. The survival analysis between groups was carried out with Kaplan-Meier test. p<0.05 was considered to be statistically significant.

[1] = Gr 2: Compound I 3 mg/kg PO QD + Anti-IgG2a 10 mg/kg IP BIW
[2] = Gr 3: Compound I 10 mg/kg PO QD + Anti-IgG2a 10 mg/kg IP BIW
[3] = Gr 4: Compound I 30 mg/kg PO QD + Anti-IgG2a 10 mg/kg IP BIW
[4] = Gr 5: Compound I 75 mg/kg PO QD + Anti-IgG2a 10 mg/kg IP BIW

C[S@@](=N)(=O)c1ccc(C(=O)Nc2cc(-c3ccc(F)cc3)ccc2N)cc1 [Compound I, (R)—N-(4-amino-4′-fluoro-[1,1′-biphenyl]-3-yl)-4-(S-methylsulfonimidoyl)benzamide]
CR (complete regression) [1]: 0.0% | ORR (CR + PR) [1]: 0.0% | PR (partial regression) [1]: 0.0% | Tumor Volume (Gr 2: Compound I 3 mg/kg PO QD + Anti-IgG2a 10 mg/kg IP BIW, day 0 of treatment): 52 ± 2 mm^3 | Tumor Volume (Gr 2: Compound I 3 mg/kg PO QD + Anti-IgG2a 10 mg/kg IP BIW, day 2 of treatment): 208 ± 6 mm^3 | Tumor Volume (Gr 2: Compound I 3 mg/kg PO QD + Anti-IgG2a 10 mg/kg IP BIW, day 4 of treatment): 489 ± 23 mm^3 | Tumor Volume (Gr 2: Compound I 3 mg/kg PO QD + Anti-IgG2a 10 mg/kg IP BIW, day 7 of treatment): 925 ± 98 mm^3 | Tumor Volume (Gr 2: Compound I 3 mg/kg PO QD + Anti-IgG2a 10 mg/kg IP BIW, day 9 of treatment): 1439 ± 130 mm^3 | T/C [1]: 98.7% | TGI % [1]: 1.3% | Tumor Volume (Gr 2: Compound I 3 mg/kg PO QD + Anti-IgG2a 10 mg/kg IP BIW, day 11 of treatment): 2105 ± 184 mm^3 | Tumor Volume (Gr 2: Compound I 3 mg/kg PO QD + Anti-IgG2a 10 mg/kg IP BIW, day 14 of treatment): 2876 ± 196 mm^3 | Tumor Volume (Gr 2: Compound I 3 mg/kg PO QD + Anti-IgG2a 10 mg/kg IP BIW, day 16 of treatment): 3215 ± 79 mm^3 | CR (complete regression) [2]: 0.0% | ORR (CR + PR) [2]: 0.0% | PR (partial regression) [2]: 0.0% | Tumor Volume (Gr 3: Compound I 10 mg/kg PO QD + Anti-IgG2a 10 mg/kg IP BIW, day 0 of treatment): 52 ± 2 mm^3 | Tumor Volume (Gr 3: Compound I 10 mg/kg PO QD + Anti-IgG2a 10 mg/kg IP BIW, day 2 of treatment): 213 ± 10 mm^3 | Tumor Volume (Gr 3: Compound I 10 mg/kg PO QD + Anti-IgG2a 10 mg/kg IP BIW, day 4 of treatment): 473 ± 38 mm^3 | Tumor Volume (Gr 3: Compound I 10 mg/kg PO QD + Anti-IgG2a 10 mg/kg IP BIW, day 7 of treatment): 735 ± 82 mm^3 | Tumor Volume (Gr 3: Compound I 10 mg/kg PO QD + Anti-IgG2a 10 mg/kg IP BIW, day 9 of treatment): 1059 ± 167 mm^3 | T/C [2]: 65.8% | TGI % [2]: 35.0% | Tumor Volume (Gr 3: Compound I 10 mg/kg PO QD + Anti-IgG2a 10 mg/kg IP BIW, day 11 of treatment): 1403 ± 270 mm^3 | Tumor Volume (Gr 3: Compound I 10 mg/kg PO QD + Anti-IgG2a 10 mg/kg IP BIW, day 14 of treatment): 1923 ± 343 mm^3 | Tumor Volume (Gr 3: Compound I 10 mg/kg PO QD + Anti-IgG2a 10 mg/kg IP BIW, day 16 of treatment): 2101 ± 176 mm^3 | Tumor Volume (Gr 3: Compound I 10 mg/kg PO QD + Anti-IgG2a 10 mg/kg IP BIW, day 18 of treatment): 2570 ± 205 mm^3 | Tumor Volume (Gr 3: Compound I 10 mg/kg PO QD + Anti-IgG2a 10 mg/kg IP BIW, day 21 of treatment): 3275 ± 64 mm^3 | CR (complete regression) [3]: 0.0% | ORR (CR + PR) [3]: 0.0% | PR (partial regression) [3]: 0.0% | Tumor Volume (Gr 4: Compound I 30 mg/kg PO QD + Anti-IgG2a 10 mg/kg IP BIW, day 0 of treatment): 52 ± 2 mm^3 | Tumor Volume (Gr 4: Compound I 30 mg/kg PO QD + Anti-IgG2a 10 mg/kg IP BIW, day 2 of treatment): 212 ± 14 mm^3 | Tumor Volume (Gr 4: Compound I 30 mg/kg PO QD + Anti-IgG2a 10 mg/kg IP BIW, day 4 of treatment): 484 ± 37 mm^3 | Tumor Volume (Gr 4: Compound I 30 mg/kg PO QD + Anti-IgG2a 10 mg/kg IP BIW, day 7 of treatment): 734 ± 64 mm^3 | Tumor Volume (Gr 4: Compound I 30 mg/kg PO QD + Anti-IgG2a 10 mg/kg IP BIW, day 9 of treatment): 883 ± 84 mm^3 | T/C [3]: 49.5% | TGI % [3]: 51.8% | Tumor Volume (Gr 4: Compound I 30 mg/kg PO QD + Anti-IgG2a 10 mg/kg IP BIW, day 11 of treatment): 1055 ± 101 mm^3 | Tumor Volume (Gr 4: Compound I 30 mg/kg PO QD + Anti-IgG2a 10 mg/kg IP BIW, day 14 of treatment): 1481 ± 146 mm^3 | Tumor Volume (Gr 4: Compound I 30 mg/kg PO QD + Anti-IgG2a 10 mg/kg IP BIW, day 16 of treatment): 1977 ± 272 mm^3 | Tumor Volume (Gr 4: Compound I 30 mg/kg PO QD + Anti-IgG2a 10 mg/kg IP BIW, day 18 of treatment): 2344 ± 368 mm^3 | Tumor Volume (Gr 4: Compound I 30 mg/kg PO QD + Anti-IgG2a 10 mg/kg IP BIW, day 21 of treatment): 2602 ± 361 mm^3 | Tumor Volume (Gr 4: Compound I 30 mg/kg PO QD + Anti-IgG2a 10 mg/kg IP BIW, day 23 of treatment): 2794 ± 665 mm^3 | Tumor Volume (Gr 4: Compound I 30 mg/kg PO QD + Anti-IgG2a 10 mg/kg IP BIW, day 25 of treatment): 1551 mm^3 | Tumor Volume (Gr 4: Compound I 30 mg/kg PO QD + Anti-IgG2a 10 mg/kg IP BIW, day 28 of treatment): 2589 mm^3 | Tumor Volume (Gr 4: Compound I 30 mg/kg PO QD + Anti-IgG2a 10 mg/kg IP BIW, day 30 of treatment): 3550 mm^3 | CR (complete regression) [4]: 12.5% | ORR (CR + PR) [4]: 12.5%
